Data on seven molecules can be found in US9708314B2, “Heterocyclic amide compound” (NISSAN CHEMICAL INDUSTRIES, LTD., priority 2013, dated 2017).

Structures are written as SMILES.

What all share (type): in vivo
The test system of one data set is Galium spurium. Put plainly: Test Example 4: herbicidal effect by application to foliage (diluvial soil, plastic box). The following applies: for Q: herbicidal effect on Galium spurium: application to foliage, application herbicide amount 320 g/ha; for Q (Galium spurium) herbicidal effect grade: foliage application. Put shortly:
(§1)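 Emulsion-formulated compound, diluted to a predetermined g/ha dose, applied by small sprayer to leaves and stems of 14-day-old seedlings grown in sterilized diluvial soil. Effect rated on 0–5 herbicidal-ratio scale three weeks on.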

The next data set concerns Avena fatua. Described as above. To be noted: for I: herbicidal effect on Avena fatua: application to foliage, application herbicide amount 320 g/ha; for I (Avena fatua) herbicidal effect grade: foliage application. Put shortly:
as §1

In data set [1] the test system is Echinochloa crus-galli var. crus-galli. Described as above. To be noted: for H: herbicidal effect on Echinochloa crus-galli var. crus-galli: application to foliage, application herbicide amount 320 g/ha; for H (Echinochloa crus-galli var. crus-galli) herbicidal effect grade: foliage application. An outline of the steps:
as §1

The next data set has as its system Lolium multiflorum Lam. Described as above. The following applies: for K: herbicidal effect on Lolium multiflorum Lam.: application to foliage, application herbicide amount 320 g/ha; for K (Lolium multiflorum Lam.) herbicidal effect grade: foliage application. Put shortly: as §1
Data set [2] has as its system Echinochloa oryzacola Vasing. Put plainly: Test Example 2: herbicidal activity, application during weed generation in submerged conditions. To be noted: Eighteenth Table; application herbicide amount 320 g/ha. Put shortly:
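Post-emergence application under submerged conditions: water-diluted emulsion dosed onto the water surface (g/ha) when weeds reach one- to two-leaf stage. Soil flooded to 4 cm; greenhouse 25–30 °C. Herbicidal ratio graded in six classes, 0 (≤5%) to 5 (≥90%), at three weeks.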

The subject of the next data set is Scirpus juncoides. Put plainly: Test Example 1: herbicidal activity, application before weed generation in submerged conditions. To be noted: Application herbicide amount 320 g/ha; Seventeenth Table. Put shortly: (§2)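 Rating, on a six-step scale from almost no effect (0) to almost completely withered (5), was made three weeks after pre-emergence treatment. Treatment was surface application to flooded pots at g/ha rates, with plants kept at 25° C. to 30° C.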

Data set [3] concerns Echinochloa oryzacola Vasing. Described as above. To be noted: Application herbicide amount 320 g/ha; Seventeenth Table. Put shortly: as §2
The subject of the next data set is Monochoria vaginalis. Described as above. To be noted: Application herbicide amount 320 g/ha; Seventeenth Table. An outline of the steps:
as §2

The subject of data set [4] is transplanted Oryza sativa. Put plainly: Test Example 1: effect on crop, application before weed generation in submerged conditions. The following applies: Application herbicide amount 320 g/ha; Seventeenth Table. An outline of the steps:
as §2

The mark [5] stands for this setting: Application herbicide amount 320 g/ha.

With `Cc1nnc(NC(=O)c2ccc(C(F)(F)F)n3c(-c4cc5ccccc5n4C)nnc23)o1` [1-059], the Q with Galium spurium (setting [5]) is on record as 0 (Herbicidal ratio of 5% or less (almost no effect)). The I in the data set with Avena fatua (setting [5]) is 0 (Herbicidal ratio of 5% or less (almost no effect)). For the same molecule, the H in data set [1] (setting [5]) is 2 (Herbicidal ratio of 20% or more and less than 40%). The K in the data set on Lolium multiflorum Lam. (setting [5]) is 0 (Herbicidal ratio of 5% or less (almost no effect)). Besides, the “A (Echinochloa oryzicola Vasing.) herbicidal ratio grade” value in data set [2] is 2 (Herbicidal ratio of 20% or more and less than 40%). Besides, the “B: Scirpus juncoides (herbicidal effect grade)” value (“B: Scirpus juncoides” below) with Scirpus juncoides is 3 (Herbicidal ratio of 40% or more and less than 70%). In [3], the “A: Echinochloa oryzicola Vasing. (herbicidal effect grade)” value is 2 (Herbicidal ratio of 20% or more and less than 40%). Moreover, the “C: Monochoria vaginalis (herbicidal effect grade)” value (“C: Monochoria vaginalis” below) with Monochoria vaginalis was 2 (Herbicidal ratio of 20% or more and less than 40%). Also, in [4], the “a: transplanted Oryza sativa (effect on crop grade)” value (shortened to “a: transplanted Oryza sativa”) was 0 (Herbicidal ratio of 5% or less (almost no effect)).

Turning to `Cn1nnnc1NC(=O)c1ccc(C(F)(F)F)n2c(C(C)(C)C)nnc12` [2-027], the “Q: herbicidal effect on Galium spurium” value in the data set on Galium spurium is 4 (Herbicidal ratio of 70% or more and less than 90%). Moreover, in the data set with Avena fatua, the “I: herbicidal effect on Avena fatua” value is 3 (Herbicidal ratio of 40% or more and less than 70%). Moreover, the “H: herbicidal effect on Echinochloa crus-galli var. crus-galli” value (“H: herbicidal effect” below) in [1] is listed as 5 (Herbicidal ratio of 90% or more (almost completely withered)). In the data set with Lolium multiflorum Lam., the “K: herbicidal effect on Lolium multiflorum Lam.” value (“K: herbicidal effect” below) was 3 (Herbicidal ratio of 40% or more and less than 70%). Besides, the “A (Echinochloa oryzicola Vasing.) herbicidal ratio grade” value in data set [2] is given as 5 (Herbicidal ratio of 90% or more (almost completely withered)). For the same molecule, in the data set on Scirpus juncoides, the “B: Scirpus juncoides” value was 5 (Herbicidal ratio of 90% or more (almost completely withered)). The “A: Echinochloa oryzicola Vasing. (herbicidal effect grade)” value in [3] is recorded as 5 (Herbicidal ratio of 90% or more (almost completely withered)). Moreover, in the data set on Monochoria vaginalis, the “C: Monochoria vaginalis” value is recorded as 5 (Herbicidal ratio of 90% or more (almost completely withered)). In addition, the “a: transplanted Oryza sativa” value in data set [4] is 4 (Herbicidal ratio of 70% or more and less than 90%).

In the case of `Cc1nnc(NC(=O)c2ccc(C(F)(F)F)n3c(N4CC[S+]([O-])CC4)nnc23)o1` [1-119], the “Q (Galium spurium) herbicidal effect grade” value with Galium spurium (setting [5]) is 4 (Herbicidal ratio of 70% or more and less than 90%). The “I (Avena fatua) herbicidal effect grade” value in the data set on Avena fatua (setting [5]) was 3 (Herbicidal ratio of 40% or more and less than 70%). The “H (Echinochloa crus-galli var. crus-galli) herbicidal effect grade” value in data set [1] (setting [5]) is listed as 5 (Herbicidal ratio of 90% or more (almost completely withered)). The “K (Lolium multiflorum Lam.) herbicidal effect grade” value with Lolium multiflorum Lam. (setting [5]) was 2 (Herbicidal ratio of 20% or more and less than 40%). In [2], the “A (Echinochloa oryzicola Vasing.) herbicidal ratio grade” value is 4 (Herbicidal ratio of 70% or more and less than 90%). Besides, in the data set with Scirpus juncoides, the “B: Scirpus juncoides” value is 1 (Herbicidal ratio of 5% or more and less than 20%). In addition, in [3], the “A: Echinochloa oryzicola Vasing. (herbicidal effect grade)” value was 2 (Herbicidal ratio of 20% or more and less than 40%). Also, in the data set with Monochoria vaginalis, the “C: Monochoria vaginalis” value was 0 (Herbicidal ratio of 5% or less (almost no effect)). For the same molecule, in [4], the “a: transplanted Oryza sativa” value is 3 (Herbicidal ratio of 40% or more and less than 70%).

For `Cn1nnnc1NC(=O)c1ccc(C(F)(F)F)n2c(C3CC3)nnc12` [2-005], the “Q: herbicidal effect on Galium spurium” value in the data set with Galium spurium is 4 (Herbicidal ratio of 70% or more and less than 90%). Further, the “I: herbicidal effect on Avena fatua” value in the data set on Avena fatua was 3 (Herbicidal ratio of 40% or more and less than 70%). Also, in data set [1], the “H: herbicidal effect” value is on record as 5 (Herbicidal ratio of 90% or more (almost completely withered)). Moreover, in the data set with Lolium multiflorum Lam., the “K: herbicidal effect” value was 2 (Herbicidal ratio of 20% or more and less than 40%). Besides, the “A (Echinochloa oryzicola Vasing.) herbicidal ratio grade” value in [2] is given as 5 (Herbicidal ratio of 90% or more (almost completely withered)). Moreover, the “B: Scirpus juncoides” value in the data set with Scirpus juncoides was 5 (Herbicidal ratio of 90% or more (almost completely withered)). Further, the “A: Echinochloa oryzicola Vasing. (herbicidal effect grade)” value in data set [3] was 5 (Herbicidal ratio of 90% or more (almost completely withered)). In the data set with Monochoria vaginalis, the “C: Monochoria vaginalis” value is 5 (Herbicidal ratio of 90% or more (almost completely withered)). Also, in [4], the “a: transplanted Oryza sativa” value is 0 (Herbicidal ratio of 5% or less (almost no effect)).

Take `CC(C)Sc1nnc2c(C(=O)Nc3nnnn3C)ccc(C(F)(F)F)n12` [2-025]: the “Q: herbicidal effect on Galium spurium” value in the data set on Galium spurium was 4 (Herbicidal ratio of 70% or more and less than 90%). Also, the “I: herbicidal effect on Avena fatua” value with Avena fatua is 4 (Herbicidal ratio of 70% or more and less than 90%). Besides, in [1], the “H: herbicidal effect” value is listed as 5 (Herbicidal ratio of 90% or more (almost completely withered)). In addition, the “K: herbicidal effect” value with Lolium multiflorum Lam. is 3 (Herbicidal ratio of 40% or more and less than 70%). Further, in data set [2], the “A (Echinochloa oryzicola Vasing.) herbicidal ratio grade” value is 5 (Herbicidal ratio of 90% or more (almost completely withered)). The “B: Scirpus juncoides” value with Scirpus juncoides is 5 (Herbicidal ratio of 90% or more (almost completely withered)). The “A: Echinochloa oryzicola Vasing. (herbicidal effect grade)” value in [3] was 5 (Herbicidal ratio of 90% or more (almost completely withered)). Moreover, in the data set on Monochoria vaginalis, the “C: Monochoria vaginalis” value is recorded as 5 (Herbicidal ratio of 90% or more (almost completely withered)). Also, in data set [4], the “a: transplanted Oryza sativa” value was 5 (Herbicidal ratio of 90% or more (almost completely withered)).

As for `C=CCSc1nnc2c(C(=O)Nc3nnc(C)o3)ccc(C(F)(F)F)n12` [1-064], the Q with Galium spurium (setting [5]) is 3 (Herbicidal ratio of 40% or more and less than 70%). For the same molecule, in the data set on Avena fatua (setting [5]), the I is 1 (Herbicidal ratio of 5% or more and less than 20%). The H in data set [1] (setting [5]) was 5 (Herbicidal ratio of 90% or more (almost completely withered)). For the same molecule, the K in the data set on Lolium multiflorum Lam. (setting [5]) is 1 (Herbicidal ratio of 5% or more and less than 20%). In addition, in data set [2], the “A (Echinochloa oryzicola Vasing.) herbicidal ratio grade” value is 2 (Herbicidal ratio of 20% or more and less than 40%). The “B: Scirpus juncoides” value in the data set with Scirpus juncoides was 4 (Herbicidal ratio of 70% or more and less than 90%). For the same molecule, in [3], the “A: Echinochloa oryzicola Vasing. (herbicidal effect grade)” value was 5 (Herbicidal ratio of 90% or more (almost completely withered)). Further, in the data set with Monochoria vaginalis, the “C: Monochoria vaginalis” value is 3 (Herbicidal ratio of 40% or more and less than 70%). Besides, the “a: transplanted Oryza sativa” value in data set [4] is on record as 0 (Herbicidal ratio of 5% or less (almost no effect)).

For `Cn1nnnc1NC(=O)c1ccc(C(F)(F)F)n2c(C3=NOC(C)(C)C3)nnc12` [2-028], the “Q (Galium spurium) herbicidal effect grade” value with Galium spurium (320 g/ha) was 4 (Herbicidal ratio of 70% or more and less than 90%). For the same molecule, in the data set on Avena fatua (320 g/ha), the “I (Avena fatua) herbicidal effect grade” value is 4 (Herbicidal ratio of 70% or more and less than 90%). For the same molecule, the “H (Echinochloa crus-galli var. crus-galli) herbicidal effect grade” value in data set [1] (320 g/ha) was 5 (Herbicidal ratio of 90% or more (almost completely withered)). In addition, in the data set on Lolium multiflorum Lam. (320 g/ha), the “K (Lolium multiflorum Lam.) herbicidal effect grade” value is 4 (Herbicidal ratio of 70% or more and less than 90%). Also, the “A (Echinochloa oryzicola Vasing.) herbicidal ratio grade” value in [2] is listed as 5 (Herbicidal ratio of 90% or more (almost completely withered)). Also, in the data set with Scirpus juncoides, the “B: Scirpus juncoides” value is 5 (Herbicidal ratio of 90% or more (almost completely withered)). Moreover, the “A: Echinochloa oryzicola Vasing. (herbicidal effect grade)” value in data set [3] is 5 (Herbicidal ratio of 90% or more (almost completely withered)). Further, in the data set on Monochoria vaginalis, the “C: Monochoria vaginalis” value is listed as 5 (Herbicidal ratio of 90% or more (almost completely withered)). In [4], the “a: transplanted Oryza sativa” value is 5 (Herbicidal ratio of 90% or more (almost completely withered)).
